The text below walks through data of patent publication US9629830B2, “EphA4 inhibitors as neuroprotective agents” (The Hong Kong University of Science and Technology, priority 2013, dated 2017).

“Also recorded” adds a separate entry of the source.

For series [1], the system named is Aβ-induced reduction of neurotransmission in hippocampal neurons. Kind of series: mEPSC recording in Aβ-treated cultured hippocampal neurons. In kind it is cell-based, rat. As to the method:
Primary cortical and hippocampal neurons were prepared from embryonic day 18-19 rat embryos as described previously^24. Briefly, cortical neurons (6×10^6 per plate) were plated on 100-mm culture dishes coated with poly-D-lysine (12.5 μg/mL; Sigma). Rat hippocampal neurons were seeded on 18-mm coverslips coated with poly-D-lysine (50 μg/mL) at a density of 0.5×10^5/18-mm coverslip for immunocytochemical analysis, 0.1×10^5/18-mm coverslip for growth cone collapse assay, or 1×10^5 or 1.5×10^5/18-mm coverslip for mEPSC recording. Neurons were fed Neurobasal medium (Invitrogen) supplemented with 2% B27 (Invitrogen). Acute brain slices were prepared from P15-P17 Sprague-Dawley rats. Briefly, the rats were rapidly decapitated, and their brains were immersed in ice-cold artificial cerebrospinal fluid (ACSF). The hippocampus was dissected, and 300-μm-thick slices were prepared using a vibratome (Lieca). The slices were then transferred into an incubating chamber containing circulating ACSF equilibrated with 95% O2+5% CO2 and held at room temperature for at least 2 h for recovery prior to experiments^65.
For miniature EPSC recordings, hippocampal neurons at ˜25-28 DIV were co-treated with or without 500 nM Aβ together with the testing reagents for 24 h. Whole-cell patch-clamp recordings were made at room temperature with external solution containing (in mM) 110 NaCl, 5 KCl, 2 CaCl2, 0.8 MgCl2, 10 HEPES, and 10 D-glucose (pH 7.4) as well as an internal solution containing (in mM) 135 CsCl2, 10 HEPES, 2 MgCl2, 4 NaATP, 0.4 NaGTP, and 0.5 EGTA (pH 7.2)^24,27. Picrotoxin ([…]) was included in the external solution to block GABAergic IPSCs along with 0.5 μM TTX to prevent action potential-evoked EPSCs. For miniature EPSC recordings, cells were held at −70 mV. The pipette resistances for these experiments were typically 3-5 MΩ, while series resistances were 15-20 MΩ. The minis from each cell was recorded for 1 min in each condition. The measurement of mEPSC was according to that described in Mini Analysis Program for measuring AMPA receptor EPSCs (Synaptosoft Inc.). Only recording epochs in which series and input resistances varied <10% were analyzed. Data are presented as the mean±SEM of at least 3 experiments.

Series [2] addresses T1, extracellular domain of EphA4 (Homo sapiens, UniProt P54764).
T1 construct: purchased R&D Systems
Kind of series: In vitro pull-down of recombinant EphA4-Fc with biotinylated Rhy on streptavidin beads. In kind it is binding. Conditions: western blot. As to the method: For the pull-down analysis, Bio-Rhy was bound to streptavidin magnetic beads for 1 h, the beads was then incubated with recombinant EphA4-Fc or EphB2-Fc in the presence of 0.5% BSA for 1 h. After incubation, the beads were washed 4 times with DPBS and the presence of Eph in the complex was determined by western blot analysis.

Series [3] is described as follows: In vitro stability assay in mouse serum (UPLC-MS/MS). In kind it is in vitro ADME. The following applies: 3 μM, over the 360-min incubation period.
In series [4] the test system is Aβ-induced impairment of hippocampal LTP. Nature of the series: HFS-induced LTP (fEPSP slope) in acute hippocampal slices treated with Aβ. In kind it is cell-based, mouse. As for the experimental part: Oligomeric Aβ (Aβ) was prepared as described previously^59,60. Briefly, 0.5 mg monomeric Aβ1-42 was dissolved in 22.2 μL dry DMSO and then diluted in ice-cold phenol-red free F-12 medium to yield a final Aβ concentration of 100 μM. The Aβ solution was incubated at 4° C. for 24 h and then centrifuged at 14,000×g for 10 min. The supernatant was frozen in liquid nitrogen and stored at −20° C. for up to 1 month. Unless specified, cultured neurons or hippocampal slices were typically treated with Aβ at 500 nM.
For LTP recordings, mouse brains were immediately dissected after sacrifice and soaked in ice-cold 95% O2/5% CO2 (aCSF)^58. Brain slices (300 μm thick) were prepared using a vibrating tissue slicer (HM650V; Thermo), and soaked in oxygenated buffer for 2 h at 32° C. The hippocampal regions were resected and placed at the center of a MED-P210A probe (Panasonic International Inc) with 64 embedded recording electrodes. The slices were then perfused with Aβ at 500 nM in oxygenated aCSF for 2 h before LTP induction^70. For treatment with EphA4 inhibitors, the slices were pretreated with peptides or chemicals for 1 h before application of Aβ. fEPSPs were recorded using a MED64 multichannel recording system, and the data were collected from the dendritic layer of area CA1 at a sampling rate of 10 kHz. For each slice, the baseline stimulus intensity was set at the level that elicited ˜50% of the maximum fEPSP response determined according to the input-output curve. LTP was induced by 3 trains of HFS (100 Hz, 1 s, delivered 30 s apart). The magnitude of LTP was quantified as a percentage change in the fEPSP slope (10%-90%) taken during the 60-min interval after LTP induction.

Series [5] deals with EphA4-dependent growth cone collapse in hippocampal neurons. Nature of the series: EphA4-dependent (ephrin-A1-stimulated) growth cone collapse assay. In kind it is cell-based, rat. Conditions: cultured hippocampal neurons. As for the experimental part: Ephrin-A1-Fc was pre-clustered with goat anti-human Fc antibody (1:4.5)^24 and incubated at room temperature for 60 min before use. The growth cone collapse assay was performed in hippocampal neurons with ephrin-A1 0.1 μg/mL as described previously^61.
For EphA4 clustering, neurons were stained with anti-EphA4 and anti-Tau-1 antibodies. For the growth cone collapse assay, neurons were stained with Alexa Fluor 555-conjugated phalloidin (Molecular Probes) for filamentous actin and anti-Tau-1 antibody for axons. Collapsed growth cones were scored in a double-blinded manner. The experiments were repeated at least 3 times, and >50 neurons were analyzed for each experiment. Data are presented as mean±SEM.
To screen for small molecule EphA4 inhibitors, the inventors performed a molecular docking analysis using a small molecule library. […] Their ability in inhibiting EphA4 inhibiting the EphA4-dependent growth cone collapse using cultured hippocampal neurons was performed.

T1 sequence (P54764 20-547 limits assumed): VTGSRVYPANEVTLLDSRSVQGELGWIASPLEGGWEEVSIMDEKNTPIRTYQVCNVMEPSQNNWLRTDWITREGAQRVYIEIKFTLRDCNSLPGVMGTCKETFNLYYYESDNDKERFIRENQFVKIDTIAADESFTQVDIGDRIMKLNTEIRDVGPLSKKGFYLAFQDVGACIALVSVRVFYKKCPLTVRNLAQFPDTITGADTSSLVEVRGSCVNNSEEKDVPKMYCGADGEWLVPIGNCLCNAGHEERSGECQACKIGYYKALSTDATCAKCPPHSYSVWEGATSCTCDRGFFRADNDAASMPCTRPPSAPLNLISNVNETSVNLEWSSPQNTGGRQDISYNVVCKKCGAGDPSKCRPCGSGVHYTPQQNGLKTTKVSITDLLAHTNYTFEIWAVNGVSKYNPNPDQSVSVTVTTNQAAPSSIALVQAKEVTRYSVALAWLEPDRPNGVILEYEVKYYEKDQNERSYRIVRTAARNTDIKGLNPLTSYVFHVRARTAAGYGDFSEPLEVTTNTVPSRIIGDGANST

Regarding `CC[C@H]1CN2CC[C@]3(C(=O)Nc4ccccc43)[C@@H]2C[C@@H]1/C(=C\OC)C(=O)OC` [Rhy, methyl (7β,16E,20α)-16-(methoxymethylene)-2-oxocorynoxan-17-oate], the mEPSC inter-event interval was found to be 420.6 ± 9.6 ms in series [1] (Rhy 10 μM + Aβ, Aβ alone 897.4±43.4 ms) and 512.2 ± 13.6 ms in series [1] (Rhy 10 μM alone, control 312.9±7.8 ms). Moreover, the “binding to the extracellular domain of EphA4 (pull-down, words)” value in series [2] is “binds the extracellular domain of EphA4”. For the same compound, the “reduction of Rhy concentration in serum” value in series [3] is recorded as approximately 20%. For the same compound, the “mean fEPSP slope, last 10 min after LTP induction” value in series [4] (Rhy 30 μM + Aβ, Aβ alone 131.1±3.9%) amounted to 174.1±9.8%; in series [4] (Rhy 30 μM alone, control 172.7±7.5%) it was 168.1±6.0%. In addition, the “ephrin-A1-stimulated growth cone collapse” value in series [5] is listed as “reduced; also recorded: inhibited ephrin-A1-stimulated growth cone collapse”.
